According to patent US20050090529A1, “3,5 Disubstituted indazole compounds with nitrogen-bearing 5-membered heterocycles, pharmaceutical compositions, and methods for mediating or inhibiting cell proliferation” (PFIZER INC, priority 2003, published 2005):

These compounds were tested on Cyclin-dependent kinase (assay: Cyclin-dependent kinase inhibition, % inhibition at 10 nM (library Examples 99-270)). Settings: 10 nM compound.
Format: biochemical
Procedure, shortened: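 Radiometric filter assay: kinase transfers ³²P/³³P from 25 μM ATP to a protein substrate in pH 7.4 HEPES buffer with MgCl2, 2% DMSO, 30° C, 20 min. EDTA stop; substrate captured on nitrocellulose or phosphocellulose membrane, washed with phosphoric acid, counted by phosphorimager.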
`CCNCc1cncc(-c2ccc3[nH]nc(-c4ncc(C(=O)N(C)C)[nH]4)c3c2)c1C` [Example 190, 2-(5-{5-[(ethylamino)methyl}-4-methylpyridin-3-yl}-1H-indazol-3-yl)-N,N-dimethyl-1H-imidazole-5-carboxamide] was tested, and the “% Inhib @ 10 nM” value was 76%.
`CCNCc1cncc(-c2ccc3[nH]nc(-c4ncc(C(=O)N5CCCC(Cc6ncccn6)CC5)[nH]4)c3c2)c1C` (stereo not drawn) [Example 261, ethyl({4-methyl-5-[3-(5-{[4-(pyrimidin-2-ylmethyl)azepan-1-yl]carbonyl}-1H-imidazol-2-yl)-1H-indazol-5-yl]pyridin-3-yl}methyl)amine] was tested, and the “% Inhib @ 10 nM” value was 30%.
For `CCNCc1cncc(-c2ccc3[nH]nc(-c4ncc(C(=O)N5CCN(c6ncccc6C#N)CC5)[nH]4)c3c2)c1C` [Example 226], the “% Inhib @ 10 nM” value was 62%.
For `CCNCc1cncc(-c2ccc3[nH]nc(-c4ncc(C(=O)NCCc5cccc(OC)c5)[nH]4)c3c2)c1C` [Example 114, 2-(5-{5-[(ethylamino)methyl]-4-methylpyridin-3-yl}-1H-indazol-3-yl)-N-[2-(3-methoxyphenyl)ethyl]-1H-imidazole-5-carboxamide], the “% Inhib @ 10 nM” value was 64%.
With `CCNCc1cncc(-c2ccc3[nH]nc(-c4ncc(C(=O)NCCOCCO)[nH]4)c3c2)c1C` [Example 104] the “% Inhib @ 10 nM” value was 54%.
For `CCNCc1cncc(-c2ccc3[nH]nc(-c4ncc(C(=O)N5CCN(Cc6ccc(OC)cc6)CC5)[nH]4)c3c2)c1C` [Example 181, ethyl({5-[3-(5-{[4-(4-methoxybenzyl)piperazin-1-yl]carbonyl}1H-imidazol-2-yl)-1H-indazol-5-yl]-4-methylpyridin-3-yl}methyl)amine], the “% Inhib @ 10 nM” value was 57%.
In the case of `CCNCc1cncc(-c2ccc3[nH]nc(-c4ncc(C(=O)N[C@@H](CO)[C@@H](O)c5ccc(SC)cc5)[nH]4)c3c2)c1C` [Example 111, 2-(5-{5-[(ethylamino)methyl]-4-methylpyridin-3-yl}-1H-indazol-3-yl)-N-{(1S,2S)-2-hydroxy-1-(hydroxymethyl)-2-[4-(methylthio)phenyl]ethyl}-1H-imidazole-5-carboxamide], the “% Inhib @ 10 nM” value is reported as 73%.
With `CCNCc1cncc(-c2ccc3[nH]nc(-c4ncc(C(=O)N(CCOC)CCOC)[nH]4)c3c2)c1C` [Example 232, 2-(5-{5-[(ethylamino)methyl]-4-methylpyridin-3-yl}-1H-indazol-3-yl)-N,N-bis(2-methoxyethyl)-1H-imidazole-5-carboxamide] the “% Inhib @ 10 nM” value was 58%.
`CCNCc1cncc(-c2ccc3[nH]nc(-c4ncc(C(=O)N5CCSCC5)[nH]4)c3c2)c1C` [Example 163, ethyl[(4-methyl-5-{3-[5-(thiomorpholin-4-ylcarbonyl)-1H-imidazol-2-yl]-1H-indazol-5-yl}pyridin-3-yl)methyl]amine] was tested, and the “% Inhib @ 10 nM” value was 60%.
For `CCNCc1cncc(-c2ccc3[nH]nc(-c4ncc(C(=O)N5CCN(CC6CCCO6)CC5)[nH]4)c3c2)c1C` (stereo not drawn) [Example 229, ethyl({4-methyl-5-[3-(5-{[4-(tetrahydrofuran-2-ylmethyl)piperazin-1-yl]carbonyl}-1H-imidazol-2-yl)-1H-indazol-5-yl]pyridin-3-yl}methyl)amine], the “% Inhib @ 10 nM” value was 33%.
For `CCNCc1cncc(-c2ccc3[nH]nc(-c4ncc(C(=O)N5CCC(c6nnc(C7CC7)o6)CC5)[nH]4)c3c2)c1C` [Example 256, ({5-[3-(5-[[4-(5-cyclopropyl-1,3,4-oxadiazol-2-yl)piperidin-1-yl]carbonyl}-1H-imidazol-2-yl)-1H-indazol-5-yl]-4-methylpyridin-3-yl}methyl)ethylamine], the “% Inhib @ 10 nM” value was 46%.
`CCNCc1cncc(-c2ccc3[nH]nc(-c4ncc(C(=O)NCc5ccc(OC)c6ccccc56)[nH]4)c3c2)c1C` [Example 212] was tested, and the “% Inhib @ 10 nM” value was 71%.
For `CCNCc1cncc(-c2ccc3[nH]nc(-c4ncc(C(=O)N5CCC(C)(c6cccc(OC)c6)C5)[nH]4)c3c2)c1C` (stereo not drawn) [Example 197, ethyl({5-[3-(5-{[3-(3-methoxyphenyl)-3-methylpyrrolidin-1-yl]carbonyl}-1H-imidazol-2-yl)-1H-indazol-5-yl]-4-methylpyridin-3-yl}methyl)amine], the “% Inhib @ 10 nM” value was 67%.
In the case of `CCNCc1cncc(-c2ccc3[nH]nc(-c4ncc(C(=O)N(CCO)C5CCCCC5)[nH]4)c3c2)c1C` [Example 245, N-cyclohexyl-2-(5-{5-[(ethylamino)methyl]-4-methylpyridin-3-yl}-1H-indazol-3-yl)-N-(2-hydroxyethyl)-1H-imidazole-5-carboxamide], the “% Inhib @ 10 nM” value is reported as 30%.
For `CCNCc1cncc(-c2ccc3[nH]nc(-c4ncc(C(=O)N[C@H](C(=O)NC)[C@@H](C)O)[nH]4)c3c2)c1C` [Example 176, 2-(5-{5-[(ethylamino)methyl]-4-methylpyridin-3-yl}-1H-indazol-3-yl)-N-{(1S,2R)-2-hydroxy-1-[(methylamino)carbonyl]propyl}-1H-imidazole-5-carboxamide], the “% Inhib @ 10 nM” value was 59%.
For `CCNCc1cncc(-c2ccc3[nH]nc(-c4ncc(C(=O)NCCn5cc(C(=O)NC(C)(C)C)nn5)[nH]4)c3c2)c1C` [Example 251], the “% Inhib @ 10 nM” value was 27%.
`CCNCc1cncc(-c2ccc3[nH]nc(-c4ncc(C(=O)NCc5nnc(-c6ccccc6OC)o5)[nH]4)c3c2)c1C` [Example 255, 2-(5-{5-[(ethylamino)methyl]-4-methylpyridin-3-yl}-1H-indazol-3-yl)-N-{[5-(2-methoxyphenyl)-1,3,4-oxadiazol-2-yl]methyl}-1H-imidazole-5-carboxamide] was tested, and the “% Inhib @ 10 nM” value was 40%.
In the case of `CCNCc1cncc(-c2ccc3[nH]nc(-c4ncc(C(=O)N5CCC(c6c[nH]c7ccccc67)CC5)[nH]4)c3c2)c1C` [Example 201, ethyl({5-(3-(5-{[4-(1H-indol-3-yl)pipendin-1-yl]carbonyl}-1H-imidazol-2-yl)-1H-indazol-5-yl]-4-methylpyridin-3-yl}methyl)amine], the “% Inhib @ 10 nM” value is reported as 67%.
In the case of `CCNCc1cncc(-c2ccc3[nH]nc(-c4ncc(C(=O)N[C@H](Cc5ccccc5)C(N)=O)[nH]4)c3c2)c1C` [Example 108, N-{[2-(5-{5-[(ethylamino)methyl]-4-methylpyridin-3-yl}-1H-indazol-3-yl)-1H-imidazol-5-yl]carbonyl}-D-phenylalaninamide], the “% Inhib @ 10 nM” value is reported as 57%.
With `CCNCc1cncc(-c2ccc3[nH]nc(-c4ncc(C(=O)NCC56C=CC(O5)[C@H]5C(=O)N(C)C(=O)[C@H]56)[nH]4)c3c2)c1C` (stereo partly drawn) [Example 208, 2-(5-{5-[(ethylamino)methyl]-4-methylpyridin-3-yl}-1H-indazol-3-yl)-N-{[(3aR,7aS)-2-methyl-13-dioxo-1,2,3,3a,7,7a-hexahydro-4H-4,7-epoxyisoindol-4-yl]methyl}-1H-imidazole-5-carboxamide] the “% Inhib @ 10 nM” value was 55%.
In the case of `CCNCc1cncc(-c2ccc3[nH]nc(-c4ncc(C(=O)NCCC5CCOCC5)[nH]4)c3c2)c1C` [Example 243, 2-(5-{5-[(ethylamino)methyl]-4-methylpyridin-3-yl}-1H-indazol-3-yl)-N-[2-(tetrahydro-2H-pyran-4-yl)ethyl]-1H-imidazole-5-carboxamide], the “% Inhib @ 10 nM” value is reported as 34%.
With `CCNCc1cncc(-c2ccc3[nH]nc(-c4ncc(C(=O)N5CCC(O)(Cc6ccccc6)CC5)[nH]4)c3c2)c1C` [Example 141, 4-benzyl-1-{[2-(5-{5-[(ethylamino)methyl]-4-methylpyridin-3-yl}-1H-indazol-3-yl)-1H-imidazol-5-yl]carbonyl}pipendin-4-ol] the “% Inhib @ 10 nM” value was 71%.
`CCNCc1cncc(-c2ccc3[nH]nc(-c4ncc(C(=O)N5CCN(c6ccccc6C#N)CC5)[nH]4)c3c2)c1C` [Example 147] was tested, and the “% Inhib @ 10 nM” value was 69%.
`CCNCc1cncc(-c2ccc3[nH]nc(-c4ncc(C(=O)NCCc5c[nH]c6ccc(F)cc56)[nH]4)c3c2)c1C` [Example 221, 2-(5-{5-[(ethylamino)methyl]-4-methylpyridin-3-yl}-1H-indazol-3-yl)-N-[2-(5-fluoro-1H-indol-3-yl)ethyl]-1H-imidazole-5-carboxamide] was tested, and the “% Inhib @ 10 nM” value was 56%.
In the case of `CCNCc1cncc(-c2ccc3[nH]nc(-c4ncc(C(=O)N5CCN6CCCC6C5)[nH]4)c3c2)c1C` (stereo not drawn) [Example 209], the “% Inhib @ 10 nM” value is reported as 37%.
In the case of `CCNCc1cncc(-c2ccc3[nH]nc(-c4ncc(C(=O)N5CCNC(=O)CC5)[nH]4)c3c2)c1C` [Example 231, 1-{[2-(5-{5-[(ethylamino)methyl]-4-methylpyridin-3-yl}-1H-indazol-3-yl)-1H-imidazol-5-yl]carbonyl}-1,4-diazepan-5-one], the “% Inhib @ 10 nM” value is reported as 67%.
For `CCNCc1cncc(-c2ccc3[nH]nc(-c4ncc(C(=O)NCC(F)(F)F)[nH]4)c3c2)c1C` [Example 136, 2-(5-{5-[(ethylamino)methyl]-4-methylpyridin-3-yl}-1H-indazol-3-yl)-N-(2,2,2-trifluoroethyl)-1H-imidazole-5-carboxamide], the “% Inhib @ 10 nM” value was 72%.
For `CCNCc1cncc(-c2ccc3[nH]nc(-c4ncc(C(=O)N5CCc6cc(OC)c(OC)cc6C5)[nH]4)c3c2)c1C` [Example 121, {[5-(3-{5-[(6,7-dimethoxy-3,4-dihydroisoquinolin-2(1H)-yl)carbonyl}-1H-imidazol-2-yl}-1H-indazol-5-yl)-4-methylpyridin-3-yl]methyl)ethylamine], the “% Inhib @ 10 nM” value was 69%.
For `CCNCc1cncc(-c2ccc3[nH]nc(-c4ncc(C(=O)N5CCC(Cc6ncccn6)CC5)[nH]4)c3c2)c1C` [Example 260, ethyl({4-methyl-5-[3-(5-{[4-(pyrimidin-2-ylmethyl)piperidin-1-yl]carbonyl}-1H-imidazol-2-yl)-1H-indazol-5-yl]pyridin-3-yl}methyl)amine], the “% Inhib @ 10 nM” value was 33%.
With `CCNCc1cncc(-c2ccc3[nH]nc(-c4ncc(C(=O)NCc5ccccc5OC)[nH]4)c3c2)c1C` [Example 106] the “% Inhib @ 10 nM” value was 78%.
